Patent US11236084B2, “Substituted azaindoline derivatives as NIK inhibitors” (Janssen Pharmaceutica NV, priority 2017, dated 2022)
Read-outs that look alike come from different tables or passages of the source.

Columns and labels:
[1] = tested on: P-IKKα levels in L363 (NIK translocated multiple myeloma) cells; experiment: Biological Assay C: effect of compounds on P-IKKα levels in L363 (NIK translocated multiple myeloma) cells, performed at 2 locations; format: cell-based, human; conditions: Homo sapiens, averaged values
Protocol: Effect of Compounds on P-IKKα Levels in L363 (NIK Translocated Multiple Myeloma) Cells
All compounds tested were dissolved in DMSO and further dilutions were made in culture medium. Final DMSO concentration was 1% (v/v) in cell assays. The human L363 cells (ATCC) were cultured in RPMI 1640 medium supplemented with GlutaMax and 10% fetal calf serum (PAA). Cells were routinely maintained at densities of 0.2×10^6 cells per ml-1×10^6 cells per ml at 37° C. in a humidified 5% CO2 atmosphere. Cells were passaged twice a week splitting back to obtain the low density. Cells were seeded in 96 well plates (Nunc 167008) at 2×10^6 per ml media in a volume of 75 μl per well plus 25 μl […] recombinant human B-cell activating factor (BAFF/BLyS/TNFSF13B). Seeded cells were incubated at 37° C. in a humidified 5% CO2 atmosphere for 24 hr. Drugs and/or solvents were added (20 μl) to a final volume of 120 μl. Following 2 hr treatment plates were removed from the incubator and cell lysis was achieved by the addition of 30 μl 5× lysis buffer followed by shaking on a plate shaker at 4° C. for 10 min. At the end of this incubation lysed cells were centrifuged at 800×g for 20 min at 4° C. and the lysate was assessed for P-IKKα levels by sandwich immuno-assay carried out in anti-rabbit antibody coated Mesoscale plates. Within an experiment, the results for each treatment were the mean of 2 replicate wells. For initial screening purposes, compounds were tested using an 8 point dilution curve (serial 1:3 dilutions). For each experiment, controls (containing MG132 and BAFF but no test drug) and a blank incubation (containing MG132 and BAFF and 1 μM ADS125117, a test concentration known to give full inhibition) were run in parallel. The blank incubation value was subtracted from all control and sample values. To determine the IC50 a sigmoidal curve was fitted to the plot of % inhibition of control P-IKKα levels versus Log10 compound concentration.
Assay C was performed at 2 different locations.
(§1) Data for the compounds of the invention in the above assays are provided in Table A (the values in Table are averaged values over all measurements on all batches of a compound; values as IC50 (nM)). (‘n.c.’ means not calculated: ‘Co.’ means compound)

[2] = target: T1, recombinant human NF-kappaB-inducing kinase (NIK/MAP3K14) (Homo sapiens, UniProt Q99558); experiment: Biological Assay A: inhibition of recombinant human NF-kappaB-inducing kinase (NIK/MAP3K14) activity (MBP phosphorylation, Mesoscale); conditions: MSD MBP; averaged over all measurements on all batches; read-out: Assay A Biochemical (MSD MBP) IC50
T1 sequence (Q99558 whole entry): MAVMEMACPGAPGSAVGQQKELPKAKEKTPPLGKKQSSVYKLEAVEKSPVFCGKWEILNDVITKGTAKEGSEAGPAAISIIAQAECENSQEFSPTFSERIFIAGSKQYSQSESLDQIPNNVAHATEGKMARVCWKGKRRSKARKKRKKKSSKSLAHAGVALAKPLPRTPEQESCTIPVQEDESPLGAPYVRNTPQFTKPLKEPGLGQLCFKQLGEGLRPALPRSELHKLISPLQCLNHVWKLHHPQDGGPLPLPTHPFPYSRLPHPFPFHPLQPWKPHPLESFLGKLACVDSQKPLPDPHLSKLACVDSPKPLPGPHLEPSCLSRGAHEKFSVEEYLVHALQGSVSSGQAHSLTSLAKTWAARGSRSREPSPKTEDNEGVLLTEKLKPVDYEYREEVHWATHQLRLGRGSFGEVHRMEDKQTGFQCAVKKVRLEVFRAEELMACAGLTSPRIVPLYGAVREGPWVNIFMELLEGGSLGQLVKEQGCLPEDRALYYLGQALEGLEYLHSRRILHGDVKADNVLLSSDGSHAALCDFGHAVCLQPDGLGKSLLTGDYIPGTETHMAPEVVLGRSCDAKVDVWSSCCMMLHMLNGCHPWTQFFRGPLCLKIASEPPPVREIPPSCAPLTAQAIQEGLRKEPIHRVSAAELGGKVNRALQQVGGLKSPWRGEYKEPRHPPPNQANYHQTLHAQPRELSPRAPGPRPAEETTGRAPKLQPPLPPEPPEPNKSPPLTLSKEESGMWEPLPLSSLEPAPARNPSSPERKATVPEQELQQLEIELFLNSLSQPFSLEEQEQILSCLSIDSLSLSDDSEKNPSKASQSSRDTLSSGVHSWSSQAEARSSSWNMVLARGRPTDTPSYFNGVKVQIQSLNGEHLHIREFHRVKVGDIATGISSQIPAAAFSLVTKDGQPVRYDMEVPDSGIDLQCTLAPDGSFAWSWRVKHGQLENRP
Protocol: Pharmacological Part Biological Assay A Inhibition of Recombinant Human NF-kappaB-Inducing Kinase (NIK/MAP3K14) Activity
Assay buffer was 50 mM Tris pH 7.5 containing 1 mM EGTA (ethylene glycol tetraacetic acid), 1 mM DTT (dithiothreitol), 0.1 mM Na3VO4, 5 mM MgCl2, 0.01% Tween® 20. Assays were carried out in 384 well Mesoscale high binding plates which had been coated with myelin basic protein (MBP) and blocked with bovine serum albumin to prevent non-specific protein binding. All compounds tested were dissolved in dimethyl sulfoxide (DMSO) and further dilutions were made in assay buffer. Final DMSO concentration was 1% (v/v) in assays. Incubations consisted of compound (1% DMSO in control and blank wells), 25 μM […] (ATP), and 10 nM NIK/MAP3K14 substituting enzyme with buffer in the blank wells. Incubations were carried out for 1 h at 25° C. and were followed by washing and sequential incubation with rabbit anti-phospho-MBP and anti-rabbit Ig Sulfotag antibody before reading bound Sulfotag on a Mesoscale Discovery. Signal obtained in the wells containing blank samples was subtracted from all other wells and […] were determined by fitting a sigmoidal curve to % inhibition of control versus Log10 compound concentration.
as §1

[3] = target: T1, recombinant human NF-kappaB-inducing kinase (NIK/MAP3K14); experiment: Biological Assay B: inhibition of auto-phosphorylation of recombinant human NIK/MAP3K14 (AlphaScreen), performed at 2 locations; format: biochemical; conditions: averaged values
Procedure, shortened: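 Run at two separate sites: 1 h, 25° C. reactions containing 0.2 nM GST-NIK, 25 microM ATP and compound (1% DMSO) in Tris pH 7.5/MgCl2 buffer. Phosphorylation detected via anti-phospho-IKK Ser176/180 antibody with AlphaScreen beads; IC50 fitted to % inhibition.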

[4] = L-363, location 2, L363 cells, P-IKKα levels, read-out: Assay C location 2 IC50
[5] = location 1, AlphaScreen auto-phosphorylation, read-out: Assay B location 1 IC50
[6] = location 2, AlphaScreen auto-phosphorylation, read-out: Assay B location 2 IC50
[7] = L-363, location 1, L363 cells, P-IKKα levels, read-out: Assay C location 1 IC50
[8] = location 1, NIK auto-phosphorylation, AlphaScreen, read-out: Assay B location 1 IC50
[9] = L-363, 2 h, location 1, P-IKKα levels in L363 cells, 2 hr treatment, read-out: Assay C location 1 IC50

Row | SMILES | IC50 [1, 4] [nM] | IC50 [2] [nM] | also measured
1 | COc1cc(Nc2nccc(-c3cnc4c(c3)C(C)(C)CN4)n2)c(C)c(C(=O)NC2CN(C)C2)c1 [Compound 51] | 112 | 6.9 | –
2 | CCC(=O)NCc1cccc(Nc2nccc(-c3cnc4c(c3)C(C)(C)CN4)n2)c1C [Compound 64] | 407 | 13.5 | –
3 | Cc1c(CNC(=O)C(C)C)cccc1Nc1nccc(-c2cnc3c(c2)C(C)(C)CN3)n1 [Compound 65] | 617 | 24 | –
4 | CCC(=O)NCc1ccc(Nc2nccc(-c3cnc4c(c3)C(C)(C)CN4)n2)c(C)c1 [Compound 74] | 67.6 | 6.8 | –
5 | COCC(=O)NCc1ccc(Nc2nccc(-c3cnc4c(c3)C(C)(C)CN4)n2)c(C)c1 [Compound 76] | 182 | 13.5 | –
6 | Cc1cc(C(=O)N2CC(C)(O)C2)ccc1Nc1nccc(-c2cnc3c(c2)C(C)(C)CN3)n1 [Compound 80] | 646 | 39.8 | –
7 | CC(=O)NCc1ccc(Nc2nccc(-c3cnc4c(c3)C(C)(C)CN4)n2)c(F)c1 [Compound 83] | 2690 | 35.5 | –
8 | CN1CCC(NC(=O)c2ccc(Nc3nccc(-c4cnc5c(c4)C(C)(C)CN5)n3)c(C(F)(F)F)c2)CC1 [Compound 91] | > 10000 | 339 | –
9 | Cc1cc(C(=O)N2CCC(C(C)(C)O)CC2)ccc1Nc1nccc(-c2cnc3c(c2)C(C)(C)CN3)n1 [Compound 98] | 93.3 | 13.5 | –
10 | Cc1cc(C(=O)N2CCC(C#N)CC2)ccc1Nc1nccc(-c2cnc3c(c2)C(C)(C)CN3)n1 [Compound 99] | 144 | 7.4 | –
11 | CC1(C)CNc2ncc(-c3ccnc(Nc4ccc(C(=O)NC5CCOCC5)cc4Cl)n3)cc21 [Compound 104] | 398 | 61.7 | –
12 | COc1c(Nc2nccc(-c3cnc4c(c3)C(C)(C)CN4)n2)cccc1C(=O)NC1CCOCC1 [Compound 113] | – | 288 | –
13 | Cc1cc(C#N)ccc1Nc1nccc(-c2cnc3c(c2)C(C)(C)CN3)n1 [Compound 115] | – | 457 | –
14 | COc1cc(C(=O)N2CCC(OC)CC2)ccc1Nc1nccc(-c2cnc3c(c2)C(C)(CC#N)CN3)n1 (centres unmarked) [Compound 148] | 158 | – | IC50 [3, 6]: 4.8 nM
15 | COc1cc(C(=O)N2CCCC(OC)CC2)ccc1Nc1nccc(-c2cnc3c(c2)C(C)(CO)CN3)n1 (centres unmarked) [Compound 150] | 105 | – | IC50 [3, 6]: 5.4 nM
16 | COc1ccccc1Nc1nccc(-c2cnc3c(c2)C(C)(CO)CN3)n1 (centres unmarked) [Compound 151] | 676 | – | IC50 [3, 6]: 17.8 nM; IC50 [1, 7]: ~912 nM
17 | COc1cc(C(=O)N(C)C)ccc1Nc1nccc(-c2cnc3c(c2)C(C)(CO)CN3)n1 (centres unmarked) [Compound 153] | 427 | – | IC50 [3, 5]: 18.6 nM
18 | CN1CCC(Oc2ccccc2Nc2nccc(-c3cnc4c(c3)C(C)(CO)CN4)n2)CC1 (centres unmarked) [Compound 246] | – | – | IC50 [3, 5]: 30.9 nM; IC50 [3, 6]: 17.8 nM; IC50 [1, 7]: ~2000 nM
19 | COc1cc(N2CCN(C)CC2)c(Cl)cc1Nc1nccc(-c2cnc3c(c2)C(C)(CO)CN3)n1 (centres unmarked) [Compound 267] | – | – | IC50 [3, 5]: 4.7 nM; IC50 [3, 6]: 0.5 nM; IC50 [1, 7]: 28.8 nM
20 | COc1cc(N2CC(OC)C2)c(Cl)cc1Nc1nccc(-c2cnc3c(c2)C(C)(CO)CN3)n1 (centres unmarked) [Compound 269] | – | – | IC50 [3, 6]: 1.8 nM; IC50 [1, 7]: 41.7 nM
21 | COc1cc(N2CCC(N(C)C)CC2)c(Cl)cc1Nc1nccc(-c2cnc3c(c2)C(C)(CO)CN3)n1 (centres unmarked) [Compound 277] | – | – | IC50 [3, 5]: ~3 nM; IC50 [3, 6]: 0.4 nM; IC50 [1, 7]: 23.4 nM
22 | COc1cc(C(=O)NC2CCOCC2)c(Cl)cc1Nc1nccc(-c2cnc3c(c2)C(C)(C)CN3)n1 [Compound 299] | – | – | IC50 [3, 5]: 3.2 nM; IC50 [3, 6]: 0.9 nM; IC50 [1, 7]: 29.5 nM
23 | COc1cc(N2CCC(O)CC2)c(Cl)cc1Nc1nccc(-c2cnc3c(c2)C(C)(CO)CN3)n1 (centres unmarked) [Compound 301] | – | – | IC50 [3, 5]: 5.4 nM; IC50 [3, 6]: 1.1 nM; IC50 [1, 7]: 23.4 nM
24 | COc1cc(S(C)(=O)=O)c(Cl)cc1Nc1nccc(-c2cnc3c(c2)C(C)(CO)CN3)n1 (centres unmarked) [Compound 331] | – | – | IC50 [3, 5]: 6.5 nM; IC50 [1, 7]: 79.4 nM
25 | CC1(CO)CNc2ncc(-c3ccnc(Nc4ccccc4S(C)(=O)=O)n3)cc21 (centres unmarked) [Compound 334] | – | – | IC50 [3, 5]: 3980 nM; IC50 [1, 7]: > 10000 nM
26 | CC1(CO)CNc2ncc(-c3ccnc(Nc4cc(Cl)ccc4S(C)(=O)=O)n3)cc21 (centres unmarked) [Compound 335] | – | – | IC50 [3, 5]: 269 nM; IC50 [1, 7]: > 10000 nM
27 | CN1CCC(Oc2ccc(Cl)cc2Nc2nccc(-c3cnc4c(c3)C(C)(C)CN4)n2)CC1 [Compound 338] | – | – | IC50 [3, 8]: 19.1 nM; IC50 [1, 9]: 3890 nM
28 | COc1cc(S(C)(=O)=O)c(F)cc1Nc1nccc(-c2cnc3c(c2)C(C)(C)CN3)n1 [Compound 342] | – | – | IC50 [3, 8]: 7.9 nM; IC50 ([3]; location 2, NIK auto-phosphorylation, AlphaScreen, read-out: Assay B location 2 IC50): 4.6 nM; IC50 [1, 9]: 155 nM

Second part, led by results:

Row | IC50 [1, 4] [nM] | IC50 [2] [nM] | SMILES | also measured
29 | 174 | 4.1 | Cc1cc(C(=O)N2CCC(CCO)CC2)ccc1Nc1nccc(-c2cnc3c(c2)C(C)(C)CN3)n1 [Compound 53] | –
30 | 75.9 | 8.3 | CC(=O)NCc1ccc(Nc2nccc(-c3cnc4c(c3)C(C)(C)CN4)n2)c(Br)c1 [Compound 63] | –
31 | 363 | 10.7 | COCC(=O)NCc1cccc(Nc2nccc(-c3cnc4c(c3)C(C)(C)CN4)n2)c1C [Compound 66] | –
32 | 1660 | 45.7 | CC(=O)NCc1ccc(Nc2nccc(-c3cnc4c(c3)C(C)(C)CN4)n2)c(C(F)(F)F)c1 [Compound 67] | –
33 | 53.7 | 6.5 | CC(=O)NCc1ccc(Nc2nccc(-c3cnc4c(c3)C(C)(C)CN4)n2)c(Cl)c1 [Compound 72] | –
34 | 135 | 12.3 | Cc1cc(CNC(=O)C(C)C)ccc1Nc1nccc(-c2cnc3c(c2)C(C)(C)CN3)n1 [Compound 75] | –
35 | 126 | 56.2 | CC(=O)NCc1ccc(Nc2nccc(-c3cnc4c(c3)C(C)(C)CN4)n2)c(OC(F)(F)F)c1 [Compound 77] | –
36 | > 10000 | 16.6 | Cc1cc(C(=O)N2CCOCC2)ccc1Nc1nccc(-c2cnc3c(c2)C(C)(C)CN3)n1 [Compound 78] | –
37 | ~10000 | 347 | CC1(C)CNc2ncc(-c3ccnc(Nc4ccc(C(=O)NC5CCOCC5)cc4C(F)(F)F)n3)cc21 [Compound 94] | –
38 | ~6310 | 13.5 | CC(=O)NC(C)c1cccc(Nc2nccc(-c3cnc4c(c3)C(C)(C)CN4)n2)c1 (centres unmarked) [Compound 96] | –
39 | – | ~501 | Cc1cc(C(=O)O)ccc1Nc1nccc(-c2cnc3c(c2)C(C)(C)CN3)n1 [Compound 97] | IC50 [3, 5]: > 10000 nM
40 | 174 | 6.6 | Cc1cc(C(=O)N2CCS(=O)(=O)CC2)ccc1Nc1nccc(-c2cnc3c(c2)C(C)(C)CN3)n1 [Compound 100] | –
41 | 3090 | 155 | CN1CCC(NC(=O)c2ccc(Nc3nccc(-c4cnc5c(c4)C(C)(C)CN5)n3)c(Cl)c2)CC1 [Compound 103] | –
42 | – | 417 | COc1c(Nc2nccc(-c3cnc4c(c3)C(C)(C)CN4)n2)cccc1C(=O)N1CCOCC1 [Compound 112] | –
43 | – | > 10000 | COc1ccc(C)c(Nc2nccc(-c3cnc4c(c3)C(C)(C)CN4)n2)c1CNC(C)=O [Compound 135] | –
